Source: PubChem BioAssay (NCI)
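How tested: cells in 96-well plates exposed to compound for 48 hours at five concentrations. The concentration for full growth arrest is given as TGI.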

Columns and labels:
Experiment in all cases: inhibition of tumour cell growth, NCI panel, 48 h
[1] = system: DLD-1 colon
[2] = system: DMS 273 small cell lung
[3] = system: HT29 colon
[4] = system: KM20L2 colon
[5] = system: LXFL 529 NSCLC
[6] = system: M19-MEL melanoma
[7] = system: OVCAR-4 ovarian
[8] = system: RXF-631 renal
[9] = system: SF-539 CNS
[10] = system: SNB-78 CNS
[11] = system: SW-620 colon
[12] = system: XF 498 CNS
[13] = system: DMS 114 small cell lung
[14] = system: HOP-18 NSCLC

Structure (SMILES) | TGI [1] [µM] | TGI [2] [µM] | TGI [3] [µM] | TGI [4] [µM] | TGI [5] [µM] | TGI [6] [µM] | TGI [7] [µM] | TGI [8] [µM] | TGI [9] [µM] | TGI [10] [µM] | TGI [11] [µM] | TGI [12] [µM] | TGI [13] [µM] | TGI [14] [µM]
COc1cc2c(cc1OC)C(C(CO)CO)N(CC(O)CCl)CC2 (stereo not drawn) | > 100 | > 100 | > 100 | > 100 | > 100 | > 100 | > 100 | > 100 | > 100 | > 100 | > 100 | > 100 |  | 
O=c1[nH]c(=O)n(C2OC(COP(=O)(O)OP(=O)(O)OC3OC(CO)C(O)C(O)C3O)C(O)C2O)cc1F (stereo not drawn) | > 100 |  | > 100 | > 100 | > 100 | 59.4 | 7.25 | > 100 | 1.49 | > 100 | > 100 | 16.1 | > 100 | > 100
CN(C)c1ccc(C(=C(c2ccc(N(C)C)cc2)c2ccc(N(C)C)cc2)c2ccc(N(C)C)cc2)cc1 | 41.5 | 38.9 | 35.2 | 42.4 | 25.6 | 70.9 | > 100 | 40.6 | 28 | > 100 | 20.8 |  | 49.3 | 26.1
NC(CCCC(N)P(=O)(O)c1ccccc1)P(=O)(O)c1ccccc1 (stereo not drawn) | > 261 | > 261 | > 261 | > 261 | > 261 | > 261 | > 261 |  | > 261 | > 261 | > 261 | > 261 | > 261 | > 261
Cc1ccc(S(=O)(=O)N/N=C(\c2nc3ccc(Cl)cc3[nH]c2=O)C(O)c2cccc([N+](=O)[O-])c2)cc1 (stereo not drawn) | > 100 | > 100 | > 100 | > 100 | > 100 | > 100 | > 100 | > 100 | > 100 | > 100 | > 100 | > 100 | > 100 | > 100
Cc1ccc(NC(=O)C2C(=O)N(c3ccc(C)cc3)C(=O)/C2=N\NC(N)=S)cc1 (stereo not drawn) |  | > 100 | > 100 | > 100 | > 100 | > 100 | > 100 |  | > 100 | > 100 | > 100 | > 100 | > 100 | > 100
CCCN(CCCC(NC(C)=O)C(=O)NCc1ccccc1)C(=O)N(CCCl)N=O (stereo not drawn) | 43.1 | 24.6 | > 66.7 | 46.7 | 34 | 28.1 | > 85 | > 77.6 | 5.95 | 71 | 49.7 | 30.3 | 65.7 | 64.7
CCOC(=O)C1(C/C=C(/C)Cl)CCCC1=O (stereo not drawn) | > 100 | > 100 | > 100 | > 100 | > 100 | > 100 | > 100 | > 100 | > 100 |  |  | > 100 | > 100 | > 100
O=C(/N=C/c1c(O)c2ccccc2oc1=O)Nc1ccccc1 | > 100 | > 100 | > 100 | > 100 | > 100 | > 100 | > 100 |  | > 100 | > 100 | > 100 | > 100 | > 100 | > 100
Cc1cccc2c(=O)c([Se]c3coc4c(C)cccc4c3=O)coc12 | 41.5 | > 100 | 61.7 | 52.6 | 29.2 | 30.3 | 35.2 |  | 29.9 | 30.4 | 39.1 | 34.8 | 31.7 | 41.2
Cc1nc(Nc2ccc(Cl)cc2)sc1C(=O)NNc1ccc([N+](=O)[O-])cc1[N+](=O)[O-] | 28 | 39.3 |  | 35.4 | 30.9 | 41.7 | 35.3 |  | 32 | > 100 | 43.5 | 32.4 | 37.8 | 27
COc1ccc(Nc2nc3ccc(C(F)(F)F)cc3nc2-c2ccccc2)cc1OC | > 100 | > 100 | 22.6 |  | > 100 |  | > 100 | > 100 | > 100 |  | > 100 | 85 | > 100 | 
O=C1c2ccc(O)cc2C(=O)c2ccc(O)cc21 | > 100 | > 100 | > 100 |  | > 100 | > 100 | > 100 | > 100 | > 100 | > 100 | > 100 | > 100 | > 100 | 
CC(C)=CC(=O)C/C(=N\NC(N)=S)C(=O)Nc1ccc(Cl)cc1 | > 100 | > 100 | > 100 | > 100 | > 100 | > 100 | > 100 |  | > 100 | > 100 | > 100 |  | > 100 | > 100
O=C1Nc2ccccc2C12CCNC2Cc1ccccc1 (stereo not drawn) | > 100 | > 100 | > 100 | > 100 | > 100 | > 100 | > 100 |  | > 100 |  | > 100 | > 100 | > 100 | > 100
COCCCNC(=O)C1C(=O)N(CCCOC)C(=O)/C1=N\N (stereo not drawn) | > 100 | > 100 | > 100 | > 100 | > 100 | > 100 | > 100 | > 100 | > 100 | > 100 | > 100 |  | > 100 | > 100
COc1ccc(-c2cc(=O)c3cc4c(cc3[nH]2)OCO4)cc1OC | > 100 | > 100 | > 100 | > 100 | > 100 | > 100 | > 100 |  | > 100 | > 100 | > 100 | > 100 | > 100 | > 100
